In US20220395472A1 (Dermavant Sciences GmbH, priority 2021, published 2022):

System: adults with plaque psoriasis
Experiment: Long-term open-label extension study (PSOARING 3): Physician Global Assessment (PGA), treatment episodes, treatment success, remittive effect
Assay type: in vivo, human
Protocol: This extension study consisted of up to 40 weeks of treatment and a 4 week, safety follow up period.
At the completion of the Week 12 visit of the DB, pivotal Phase 3 study, eligibility of the subjects opting to enroll in this extension study was confirmed. Study visits during the treatment period for all subjects occurred every 4 weeks (±3 days). A phone call was performed at Week 2 (Day 15). Unscheduled visits may have occurred, as needed. Subjects who withdrew from this study before Week 40 returned to the study center for an Early Termination visit. The total duration of this extension study participation was 44 weeks. Subjects in this study were treated as follows based on their PGA score from the Week 12 visit in the DB, pivotal Phase 3 study (Study DMVT 505 3001 or Study DMVT 505 3002).
The PGA was used to assess the primary efficacy endpoint in this study. The PGA is a clinical tool for assessing the current state/severity of a subject's psoriasis at a given time point. It is a static, 5 point, morphological assessment of overall disease severity, as determined by the Investigator, using the clinical characteristics of erythema, scaling, and plaque thickness/elevation as guidelines; higher PGA scores represent more severe disease (0=clear, 1=almost clear, 2=mild, 3=moderate, and 4=severe). The BSA affected was not considered in scoring of the PGA. Variations of the PGA are frequently used in clinical studies because it is a simple assessment, similar to those used in clinical practice. The PGA was performed first, prior to the % BSA, PASI, and LTS assessments.
Time to event parameters, such as the time from treatment success to subsequent worsening (PGA≥2) or duration of treatment episode, were summarized by the Kaplan Meier product limit method using OC.

[1] = Baseline PGA = 1, Tapinarof (Pivotal) group
[2] = Baseline PGA = 1, Vehicle (Pivotal) group
[3] = Baseline PGA = 2, Tapinarof (Pivotal) group

Question: Which “Duration of 3rd Success, Mean (SD)” value (Baseline PGA = 1, Overall) does the source give for `CC(C)c1c(O)cc(/C=C/c2ccccc2)cc1O` [Tapinarof, 3,5-Dihydroxy-4-isopropyl-trans-stilbene] here?
Answer: 15.0 (19.80) days

Question: And the “Duration of 3rd Success, Median” value (Baseline PGA = 1, Overall)?
Answer: 15.0 days

Question: What about the “Duration of Last Episode, Mean (SD)” value (Baseline PGA = 1, Overall) of the same molecule?
Answer: 146.7 (95.87) days

Question: And the “Duration of Last Episode, Median” value (Baseline PGA = 1, Overall)?
Answer: 141.0 days

Question: And the “Duration of Last Success, Median” value (Baseline PGA = 1, Overall)?
Answer: 90.0 days

Question: And the “Total Duration of Treatment Episodes, Mean (SD)” value (Baseline PGA = 1, Overall)?
Answer: 165.9 (90.32) days

Question: And the “Total Duration of Treatment Episodes, Median” value (Baseline PGA = 1, Overall)?
Answer: 193.0 days

Question: What about the “Total Duration of Treatment Success, Mean (SD)” value (Baseline PGA = 1, Overall) of the same molecule?
Answer: 124.5 (78.53) days

Question: What about the “Total Duration of Treatment Success, Median” value (Baseline PGA = 1, Overall) of the same molecule?
Answer: 120.0 days

Question: What about the “Average Duration of Episodes, Mean (SD)” value [1] of the same molecule?
Answer: 138.9 (94.99) days

Question: What about the “Average Duration of Episodes, Median” value [1] of the same molecule?
Answer: 112.0 days

Question: And the “Average Duration of Treatment Success, Mean (SD)” value [1]?
Answer: 106.8 (76.36) days

Question: And the “Average Duration of Treatment Success, Median” value [1]?
Answer: 92.5 days

Question: What about the “Duration of 1st Episode, Mean (SD)” value [1] of the same molecule?
Answer: 132.6 (99.69) days

Question: What about the “Duration of 1st Episode, Median” value [1] of the same molecule?
Answer: 85.5 days

Question: And the “Duration of 1st Success, Mean (SD)” value [1]?
Answer: 106.3 (77.57) days

Question: And the “Duration of 1st Success, Median” value [1]?
Answer: 86.0 days

Question: What about the “Duration of 2nd Episode, Mean (SD)” value [1] of the same molecule?
Answer: 97.9 (62.19) days

Question: And the “Duration of 2nd Episode, Median” value [1]?
Answer: 83.0 days

Question: And the “Duration of 2nd Success, Mean (SD)” value [1]?
Answer: 71.6 (58.68) days

Question: And the “Duration of 2nd Success, Median” value [1]?
Answer: 52.0 days

Question: And the “Duration of 3rd Episode, Mean (SD)” value [1]?
Answer: 54.9 (56.83) days

Question: And the “Duration of 3rd Episode, Median” value [1]?
Answer: 28.0 days

Question: And the “Duration of 3rd Success, Mean (SD)” value [1]?
Answer: 15.0 (19.80) days

Question: What about the “Duration of 3rd Success, Median” value [1] of the same molecule?
Answer: 15.0 days

Question: What about the “Duration of Last Episode, Mean (SD)” value [1] of the same molecule?
Answer: 145.2 (96.38) days

Question: And the “Duration of Last Episode, Median” value [1]?
Answer: 144.0 days

Question: What about the “Duration of Last Success, Mean (SD)” value [1] of the same molecule?
Answer: 107.2 (79.80) days

Question: And the “Duration of Last Success, Median” value [1]?
Answer: 85.5 days

Question: What about the “Total Duration of Treatment Episodes, Mean (SD)” value [1] of the same molecule?
Answer: 165.9 (90.68) days

Question: And the “Total Duration of Treatment Episodes, Median” value [1]?
Answer: 194.5 days

Question: What about the “Total Duration of Treatment Success, Mean (SD)” value [1] of the same molecule?
Answer: 123.7 (78.29) days

Question: And the “Total Duration of Treatment Success, Median” value [1]?
Answer: 116.5 days

Question: What about the “Average Duration of Episodes, Mean (SD)” value [2] of the same molecule?
Answer: 150.0 (97.54) days

Question: And the “Average Duration of Episodes, Median” value [2]?
Answer: 112.0 days

Question: What about the “Average Duration of Treatment Success, Mean (SD)” value [2] of the same molecule?
Answer: 116.9 (71.80) days

Question: And the “Average Duration of Treatment Success, Median” value [2]?
Answer: 127.0 days

Question: What about the “Duration of 1st Episode, Mean (SD)” value [2] of the same molecule?
Answer: 141.1 (105.95) days

Question: And the “Duration of 1st Episode, Median” value [2]?
Answer: 112.0 days

Question: And the “Duration of 1st Success, Mean (SD)” value [2]?
Answer: 115.0 (71.74) days

Question: What about the “Duration of 1st Success, Median” value [2] of the same molecule?
Answer: 127.0 days

Question: And the “Duration of 2nd Episode, Mean (SD)” value [2]?
Answer: 104.0 (61.27) days

Question: And the “Duration of 2nd Episode, Median” value [2]?
Answer: 109.5 days

Question: And the “Duration of 2nd Success, Mean (SD)” value [2]?
Answer: 144.0 (NE) days

Question: What about the “Duration of 2nd Success, Median” value [2] of the same molecule?
Answer: 144.0 days

Question: And the “Duration of Last Episode, Mean (SD)” value [2]?
Answer: 159.0 (93.38) days

Question: What about the “Duration of Last Episode, Median” value [2] of the same molecule?
Answer: 134.0 days

Question: What about the “Duration of Last Success, Mean (SD)” value [2] of the same molecule?
Answer: 118.9 (72.32) days

Question: And the “Duration of Last Success, Median” value [2]?
Answer: 136.0 days

Question: What about the “Total Duration of Treatment Episodes, Mean (SD)” value [2] of the same molecule?
Answer: 165.5 (89.94) days

Question: What about the “Total Duration of Treatment Episodes, Median” value [2] of the same molecule?
Answer: 140.0 days

Question: What about the “Total Duration of Treatment Success, Mean (SD)” value [2] of the same molecule?
Answer: 131.0 (85.06) days

Question: And the “Total Duration of Treatment Success, Median” value [2]?
Answer: 136.0 days

Question: And the “Average Duration of Episodes, Mean (SD)” value (Baseline PGA = 2, Overall)?
Answer: 175.5 (93.95) days

Question: And the “Average Duration of Episodes, Median” value (Baseline PGA = 2, Overall)?
Answer: 197.0 days

Question: What about the “Average Duration of Treatment Success, Mean (SD)” value (Baseline PGA = 2, Overall) of the same molecule?
Answer: 83.6 (69.31) days

Question: What about the “Average Duration of Treatment Success, Median” value (Baseline PGA = 2, Overall) of the same molecule?
Answer: 66.5 days

Question: What about the “Duration of 1st Episode, Mean (SD)” value (Baseline PGA = 2, Overall) of the same molecule?
Answer: 177.8 (92.43) days

Question: And the “Duration of 1st Episode, Median” value (Baseline PGA = 2, Overall)?
Answer: 197.0 days

Question: And the “Duration of 1st Success, Mean (SD)” value (Baseline PGA = 2, Overall)?
Answer: 90.4 (72.34) days

Question: What about the “Duration of 1st Success, Median” value (Baseline PGA = 2, Overall) of the same molecule?
Answer: 83.0 days

Question: And the “Duration of 2nd Episode, Mean (SD)” value (Baseline PGA = 2, Overall)?
Answer: 67.5 (52.79) days

Question: What about the “Duration of 2nd Episode, Median” value (Baseline PGA = 2, Overall) of the same molecule?
Answer: 59.0 days

Question: What about the “Duration of 2nd Success, Mean (SD)” value (Baseline PGA = 2, Overall) of the same molecule?
Answer: 31.9 (43.41) days

Question: What about the “Duration of 2nd Success, Median” value (Baseline PGA = 2, Overall) of the same molecule?
Answer: 27.5 days

Question: What about the “Duration of 3rd Episode, Mean (SD)” value (Baseline PGA = 2, Overall) of the same molecule?
Answer: 28.7 (27.50) days

Question: And the “Duration of 3rd Episode, Median” value (Baseline PGA = 2, Overall)?
Answer: 29.0 days

Question: And the “Duration of 3rd Success, Mean (SD)” value (Baseline PGA = 2, Overall)?
Answer: 29.0 (NE) days

Question: And the “Duration of 3rd Success, Median” value (Baseline PGA = 2, Overall)?
Answer: 29.0 days

Question: What about the “Duration of Last Episode, Mean (SD)” value (Baseline PGA = 2, Overall) of the same molecule?
Answer: 173.2 (97.88) days

Question: And the “Duration of Last Episode, Median” value (Baseline PGA = 2, Overall)?
Answer: 197.0 days

Question: And the “Duration of Last Success, Mean (SD)” value (Baseline PGA = 2, Overall)?
Answer: 77.3 (73.84) days

Question: And the “Duration of Last Success, Median” value (Baseline PGA = 2, Overall)?
Answer: 56.0 days

Question: What about the “Total Duration of Treatment Episodes, Mean (SD)” value (Baseline PGA = 2, Overall) of the same molecule?
Answer: 188.8 (87.61) days

Question: And the “Total Duration of Treatment Episodes, Median” value (Baseline PGA = 2, Overall)?
Answer: 200.0 days

Question: What about the “Total Duration of Treatment Success, Mean (SD)” value (Baseline PGA = 2, Overall) of the same molecule?
Answer: 98.0 (74.01) days

Question: What about the “Total Duration of Treatment Success, Median” value (Baseline PGA = 2, Overall) of the same molecule?
Answer: 84.0 days

Question: And the “Average Duration of Episodes, Mean (SD)” value [3]?
Answer: 177.3 (95.45) days

Question: What about the “Average Duration of Episodes, Median” value [3] of the same molecule?
Answer: 197.0 days

Question: And the “Average Duration of Treatment Success, Mean (SD)” value [3]?
Answer: 78.7 (71.03) days

Question: And the “Average Duration of Treatment Success, Median” value [3]?
Answer: 57.0 days

Question: And the “Duration of 1st Episode, Mean (SD)” value [3]?
Answer: 179.2 (94.49) days

Question: What about the “Duration of 1st Episode, Median” value [3] of the same molecule?
Answer: 197.0 days
